O=C(O)c1ccccc1OCc1ccccc1Br gave a melting point of 129 to 131 °C. Molecule O=C(O)/C=C/c1ccccn1 has a melting point of 201 to 203 °C. Work on O=[N+]([O-])c1ccc2nc(Cl)ccc2c1 yielded a melting point of 224 to 226 °C. With O=C1CCOc2c(F)cc(F)cc21 the melting point was 135 to 137 °C. O=S(=O)(Cl)c1ccc(Cl)cc1C(F)(F)F gave a melting point of 45 to 47 °C. With Nc1cccc(-n2ccnc2)c1 the melting point was 112 to 114 °C. In the case of OCc1ccc(N2CCN(c3ncccn3)CC2)c(F)c1, the melting point is reported as 114 to 116 °C. Molecule NC(=S)COc1ccccc1 has a melting point of 111 to 115 °C. CC(=O)c1c[nH]c2cc(Br)ccc12 showed a melting point of 239 to 241 °C. Molecule Nc1cnn(-c2cccc(C(F)(F)F)c2)c1 has a melting point of 82 to 84 °C. NC(=O)c1c(C2CCCCC2)csc1N showed a melting point of 164 to 166 °C. For CCOC(=O)c1c(NC(N)=S)sc(C)c1C, the melting point was 207 to 209 °C. For O=S1(=O)CCC(Cl)CC1, the melting point was 129 to 131 °C. CC(O)c1nc2ccc(Cl)cc2n1C (configuration not stated) showed a melting point of 149 to 151 °C. Work on O=C(O)c1csc(-c2ccco2)n1 yielded a melting point of 181 to 183 °C. In the case of c1ccc2c(c1)CN1CCCC1CN2 (configuration not stated), the melting point is reported as 107 to 109 °C. Work on O=[N+]([O-])c1ccc(S)nc1 yielded a melting point of 169 to 171 °C. In the case of CC(NC(N)=O)C1CC2CCC1C2 (configuration not stated), the melting point is reported as 167 to 169 °C. Molecule Cn1cc(C#N)ccc1=O has a melting point of 159 to 161 °C. Molecule Cn1ccnc1CC#N has a melting point of 39 to 41 °C. Molecule O=C(c1ccc(Cl)cc1)c1ccccn1 has a melting point of 63 to 65 °C. For O=C(O)c1cn(-c2ccccc2)nc1-c1cccs1, the melting point was 197 to 199 °C. For Nc1cc(C(F)(F)F)ccc1C1CCNCC1, the melting point was 86 to 88 °C. Work on CNS(=O)(=O)c1ccccc1CN yielded a melting point of 115 to 117 °C. With CCCCc1ccc(NC(=O)/C=N/O)cc1 the melting point was 120 to 122 °C. With O=C(O)CCCCCNS(=O)(=O)c1ccc2c(c1)OCCO2 the melting point was 86 to 90 °C. In the case of NCCCN1C(=O)NC2(CCCC2)C1=O, the melting point is reported as 129 to 131 °C. O=[N+]([O-])c1cc(S(=O)(=O)Nc2ccc(Br)cc2)ccc1Cl showed a melting point of 123 to 125 °C. In the case of NC(=O)C(N)Cc1ccccc1 (configuration not stated), the melting point is reported as 93 to 95 °C. Work on CC(C)(C)OC(=O)N1CCNc2ccccc2C1 yielded a melting point of 69 to 71 °C. Molecule CNc1ncc(C(=O)OC)s1 has a melting point of 115 to 117 °C. For Nc1cc(C2CCC2)nn1-c1ccccc1, the melting point was 87 to 89 °C. CC(C)(C)OC(=O)N1CCC(=O)C(Br)C1 (configuration not stated) showed a melting point of 95 to 97 °C. O=S1(=O)CCC(S(=O)(=O)Cl)CC1 showed a melting point of 175 to 177 °C. In the case of c1ccc(C2COCCN2)cc1 (configuration not stated), the melting point is reported as 74 to 76 °C. Molecule O=S1(=O)N=C2CCCCCN2C(c2ccncc2)N1 (configuration not stated) has a melting point of 176 to 178 °C. CCCC(NC(C)=O)C(=O)O (configuration not stated) showed a melting point of 114 to 116 °C. With Clc1cc(N2CCCC2)ncn1 the melting point was 93 to 95 °C. For CC(C)CCC(C)NC(=O)C1CSCN1 (configuration not stated), the melting point was 77 to 79 °C. With COC(=O)/C(C#N)=C/c1ccc(OC)cc1 the melting point was 105 to 107 °C. In the case of Cn1c(NN)nc2ccccc2c1=O, the melting point is reported as 150 to 152 °C. Molecule CNc1c(F)cccc1C(N)=O has a melting point of 186 to 188 °C. O=C(O)c1sccc1S(=O)(=O)N1CCCC1 showed a melting point of 128 to 130 °C. With COc1cc(OC)c([N+](=O)[O-])cc1F the melting point was 152 to 154 °C. Cc1ccc(C(=O)c2cccc(S(C)(=O)=O)c2)c(C)c1 gave a melting point of 83 to 85 °C. COC(=O)c1cnc(Cl)c(S(=O)(=O)N2CCOCC2)c1 showed a melting point of 132 to 134 °C. For CCOC(=O)C(N)c1cccc(O)c1 (configuration not stated), the melting point was 148 to 150 °C. For O=C(O)Cc1coc2cc(F)ccc12, the melting point was 103 to 105 °C. Sc1nncn1-c1cccc(Cl)c1 gave a melting point of 187 to 189 °C. In the case of O=C(O)C1CCCN(C(=O)C2Cc3cc(Cl)ccc3O2)C1 (configuration not stated), the melting point is reported as 159 to 161 °C. In the case of CC(=O)Nc1nc(CCl)cs1, the melting point is reported as 159 to 161 °C. O=C(O)c1cccc([N+](=O)[O-])c1Br showed a melting point of 184 to 186 °C. In the case of O=C(O)c1ccc(-c2nc3ccccc3s2)o1, the melting point is reported as 180 to 188 °C. In the case of NC(=O)C1Cc2[nH]cnc2CN1 (configuration not stated), the melting point is reported as 249 to 251 °C. Work on Nc1ccc(C(=O)Nc2ccc3cn[nH]c3c2)cc1 yielded a melting point of 272 to 274 °C. CNCc1ccc(N)nc1 showed a melting point of 84 to 86 °C. Molecule CC(=O)c1c(C)[nH]c(C(=O)CCl)c1C has a melting point of 170 to 180 °C. For Fc1cccc(Cn2cc(Br)cn2)c1F, the melting point was 53 to 55 °C. CC1C=CC2C(=O)N(Cc3ccccc3)C(=O)C2C1C(=O)O (configuration not stated) showed a melting point of 204 to 206 °C. NC1(CO)CCc2ccccc21 (configuration not stated) gave a melting point of 100 to 102 °C. With CC1(C)COC2(CCNCC2)OC1 the melting point was 62 to 64 °C. Molecule CC(=O)Nc1cccc(C#N)c1 has a melting point of 133 to 135 °C. CCN(Cc1ccccc1N)C(C)=O gave a melting point of 79 to 81 °C. Molecule Cc1c(Cl)cccc1OCC(=O)O has a melting point of 143 to 145 °C. Work on N#Cc1c(C(=O)O)cc(C2CC2)[nH]c1=S yielded a melting point of 258 to 260 °C. N#Cc1ccccc1Oc1ccc(C(=O)O)cc1Cl showed a melting point of 174 to 176 °C. CCOc1ccc(C(=O)N2CCCC(C(=O)O)C2)cc1OCC (configuration not stated) showed a melting point of 189 to 191 °C. In the case of CCc1cc2c(C)cc(=O)oc2cc1O, the melting point is reported as 216 to 218 °C. In the case of O=Cc1csc(-c2cccs2)n1, the melting point is reported as 80 to 82 °C. Work on Nc1nc(Cl)c(Cl)cc1[N+](=O)[O-] yielded a melting point of 126 to 128 °C. Work on O=C(O)c1noc(-c2ccc(F)cc2)n1 yielded a melting point of 129 to 131 °C. With O=c1oc2ccccc2c(Cl)c1[N+](=O)[O-] the melting point was 160 to 162 °C.
